Consider 18 molecules from US20240067632A1, “WEE1 Degrading Compounds and Uses Thereof” (Bristol-Myers Squibb Company, priority 2022, published 2024).

As a reminder, the pEC50 is −log10 of the EC50, conventionally taken in molar units.

For one assay, the system named is MKN45 cells. In words: MKN45 cell proliferation assay (Cell-Titer-Glo, 120 h). Type of assay: cell-based. The conditions noted are these: for pEC50: Homo sapiens, MKN-45, 120 h, Cell-Titer-Glo, growth inhibition, read-out: MKN45 Cell Prolif. 120 hr (EC50); for MKN45 Cell Prolif. 120 hr (Ymin-Obs): minimal percent of DMSO control observed in the concentrations tested. Put shortly: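 Growth inhibition was read as blank-corrected Cell-Titer-Glo luminescence expressed as percent DMSO control after 120 h at 37 C, 400 cells/well. Compounds tested in triplicate as 10-point half-log series from 1 or 10 uM, 0.1% DMSO; four-parameter fit gave EC50, and lowest observed percent control was reported as Ymin-obs.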

Another assay deals with T1, WEE1 (Homo sapiens, UniProt P30291+Q96SW2).
T1 construct: C-terminal ePL-tagged (DiscoverX, Fremont, CA) full-length WEE1 expression construct; expressed in transfected cells; host or cells: LentiX-HEK293T (Invitrogen), lentiviral transduction; co-expressing GSPT1-GN (G576N, lacking the first 158 amino acids)
Nature of the assay: WEE1-ePL degradation assay (LentiX-WEE1-ePL-GSPT1-ND cells, InCELL Hunter luminescence, 4 h). Type of assay: cell-based. The conditions noted are these: 293T-LentiX WEE1-ePL cells; for 293T-LentiX WEE1-ePL Degradation 4 hr (Ymin): lower limit of the fit (0 = luciferase inhibitor, Ymax = DMSO control); for DC50: read-out: 293T-LentiX WEE1-ePL Degradation 4 hr (EC50). The gist of the method:
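LentiX-HEK293T cells stably expressing C-terminally ePL-tagged full-length WEE1 were treated with compounds in a 10-point, 3-fold dilution series starting at 1 uM or 10 uM for 4 h at 37 °C. Remaining WEE1-ePL was detected by InCELL Hunter luminescence, and EC50, Ymin and Ymax came from a four-parameter logistic fit against DMSO control.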

pEC50: −log10 of the molar value.

Take `O=C1CCC(N2Cc3cc(O[C@H]4CCN(Cc5cnc6c(c5)COCC6)C4)ccc3C2=O)C(=O)N1` (stereo partly drawn) [3-(1-oxo-5-{[(3S)-1-({5H,7H,8H-pyrano[4,3-b]pyridin-3-yl}methyl)pyrrolidin-3-yl]oxy}-2,3-dihydro-1H-isoindol-2-yl)piperidine-2,6-dione]: in the assay on MKN45 cells, the pEC50 was 6.34 and the “MKN45 Cell Prolif. 120 hr (Ymin-Obs)” value is recorded as 11.67. Also, at WEE1, the “293T-LentiX WEE1-ePL Degradation 4 hr (Ymin)” value was determined as 35 and the DC50 was determined as 39.9 nM.

For `O=C1CCC(N2Cc3cc(O[C@H]4CCN(Cc5cc6cc([C@H]7CCOC7)ccc6cn5)C4)ccc3C2=O)C(=O)N1` (stereo partly drawn) [3-(1-oxo-5-{[(3S)-1-({6-[(3R)-oxolan-3-yl]isoquinolin-3-yl}methyl)pyrrolidin-3-yl]oxy}-2,3-dihydro-1H-isoindol-2-yl)piperidine-2,6-dione], in the assay with MKN45 cells, the pEC50 was 8.47 and the “MKN45 Cell Prolif. 120 hr (Ymin-Obs)” value was found to be 6.69. At WEE1, the “293T-LentiX WEE1-ePL Degradation 4 hr (Ymin)” value came to 28 and the DC50 was 1.99 nM.

As to `O=C1CCC(N2Cc3cc(O[C@H]4CCN(Cc5cc6cc([C@@H]7CCOC7)ccc6cn5)C4)ccc3C2=O)C(=O)N1` (stereo partly drawn) [3-(1-oxo-5-{[(3S)-1-({6-[(3S)-oxolan-3-yl]isoquinolin-3-yl}methyl)pyrrolidin-3-yl]oxy}-2,3-dihydro-1H-isoindol-2-yl)piperidine-2,6-dione], in the assay on MKN45 cells, the pEC50 is 7.89 and the “MKN45 Cell Prolif. 120 hr (Ymin-Obs)” value came to 5.87. Also, on WEE1, the “293T-LentiX WEE1-ePL Degradation 4 hr (Ymin)” value amounted to 28 and the DC50 is 5.38 nM.

Turning to `O=C1CCC(N2Cc3cc(O[C@H]4CCN(Cc5cc6ccc([C@H]7CCOC7)cc6cn5)C4)ccc3C2=O)C(=O)N1` (stereo partly drawn) [3-(1-oxo-5-{[(3S)-1-({7-[(3R)-oxolan-3-yl]isoquinolin-3-yl}methyl)pyrrolidin-3-yl]oxy}-2,3-dihydro-1H-isoindol-2-yl)piperidine-2,6-dione], in the assay with MKN45 cells, the pEC50 is 8.53 and the “MKN45 Cell Prolif. 120 hr (Ymin-Obs)” value was found to be 8.5. On WEE1, the “293T-LentiX WEE1-ePL Degradation 4 hr (Ymin)” value is recorded as 28 and the DC50 stood at 1.41 nM.

For `O=C1CCC(N2Cc3cc(O[C@H]4CCN(Cc5cc6ccc([C@@H]7CCOC7)cc6cn5)C4)ccc3C2=O)C(=O)N1` (stereo partly drawn) [3-(1-oxo-5-{[(3S)-1-({7-[(3S)-oxolan-3-yl]isoquinolin-3-yl}methyl)pyrrolidin-3-yl]oxy}-2,3-dihydro-1H-isoindol-2-yl)piperidine-2,6-dione], in the assay with MKN45 cells, the pEC50 is 8.73 and the “MKN45 Cell Prolif. 120 hr (Ymin-Obs)” value was 7.635. In addition, at WEE1, the “293T-LentiX WEE1-ePL Degradation 4 hr (Ymin)” value is given as 30 and the DC50 was 1.66 nM.

For `O=C1CCC(N2Cc3cc(O[C@H]4CCN(Cc5ccc6c(c5)CCCN6)C4)ccc3C2=O)C(=O)N1` (stereo partly drawn) [3-(1-oxo-5-{[(3S)-1-[(1,2,3,4-tetrahydroquinolin-6-yl)methyl]pyrrolidin-3-yl]oxy}-2,3-dihydro-1H-isoindol-2-yl)piperidine-2,6-dione], in the assay on MKN45 cells, the pEC50 was less than 5.00 and the “MKN45 Cell Prolif. 120 hr (Ymin-Obs)” value was 93.175. In addition, on WEE1, the “293T-LentiX WEE1-ePL Degradation 4 hr (Ymin)” value is on record as 79 and the DC50 stood at 3330 nM.

As for `O=C1CCC(N2Cc3cc(O[C@H]4CCN(Cc5cc6ccccc6[nH]c5=O)C4)ccc3C2=O)C(=O)N1` (stereo partly drawn) [3-(1-oxo-5-{[(3S)-1-[(2-oxo-1,2-dihydroquinolin-3-yl)methyl]pyrrolidin-3-yl]oxy}-2,3-dihydro-1H-isoindol-2-yl)piperidine-2,6-dione], in the assay with MKN45 cells, the pEC50 is 5.77 and the “MKN45 Cell Prolif. 120 hr (Ymin-Obs)” value was determined as 30.3825. For the same molecule, on WEE1, the “293T-LentiX WEE1-ePL Degradation 4 hr (Ymin)” value was 37.28 and the DC50 was 112 nM.

For the molecule `O=C1CCC(N2Cc3cc(O[C@H]4CCN(Cc5ccc6[nH]c(=O)ccc6c5)C4)ccc3C2=O)C(=O)N1` (stereo partly drawn) [3-(1-oxo-5-{[(3S)-1-[(2-oxo-1,2-dihydroquinolin-6-yl)methyl]pyrrolidin-3-yl]oxy}-2,3-dihydro-1H-isoindol-2-yl)piperidine-2,6-dione], in the assay with MKN45 cells, the pEC50 is 6.22 and the “MKN45 Cell Prolif. 120 hr (Ymin-Obs)” value is given as 17.75. On WEE1, the “293T-LentiX WEE1-ePL Degradation 4 hr (Ymin)” value is listed as 40.56 and the DC50 came out at 74.7 nM.

Turning to `O=C1CCC(N2Cc3cc(O[C@H]4CCN(Cc5ccc6ccc(=O)oc6c5)C4)ccc3C2=O)C(=O)N1` (stereo partly drawn) [3-(1-oxo-5-{[(3S)-1-[(2-oxo-2H-chromen-7-yl)methyl]pyrrolidin-3-yl]oxy}-2,3-dihydro-1H-isoindol-2-yl)piperidine-2,6-dione], in the assay with MKN45 cells, the pEC50 was less than 5.00 and the “MKN45 Cell Prolif. 120 hr (Ymin-Obs)” value stood at 85.765. Also, on WEE1, the “293T-LentiX WEE1-ePL Degradation 4 hr (Ymin)” value is on record as 55 and the DC50 was 28.8 nM.

On to `O=C1CCC(N2Cc3cc(O[C@H]4CCN(Cc5ccc6c(c5)OC(=O)CN6)C4)ccc3C2=O)C(=O)N1` (stereo partly drawn) [3-(1-oxo-5-{[(3S)-1-[(2-oxo-3,4-dihydro-2H-1,4-benzoxazin-7-yl)methyl]pyrrolidin-3-yl]oxy}-2,3-dihydro-1H-isoindol-2-yl)piperidine-2,6-dione], for which, in the assay with MKN45 cells, the pEC50 is less than 5.00 and the “MKN45 Cell Prolif. 120 hr (Ymin-Obs)” value stood at 90.28. In addition, on WEE1, the “293T-LentiX WEE1-ePL Degradation 4 hr (Ymin)” value is 80.

Turning to `O=C1CCC(N2Cc3cc(O[C@H]4CCN(Cc5ccnc(-c6ccccc6)c5)C4)ccc3C2=O)C(=O)N1` (stereo partly drawn) [3-(1-oxo-5-{[(3S)-1-[(2-phenylpyridin-4-yl)methyl]pyrrolidin-3-yl]oxy}-2,3-dihydro-1H-isoindol-2-yl)piperidine-2,6-dione], in the assay on MKN45 cells, the pEC50 was 7.64 and the “MKN45 Cell Prolif. 120 hr (Ymin-Obs)” value turned out to be 9.19. In addition, on WEE1, the “293T-LentiX WEE1-ePL Degradation 4 hr (Ymin)” value amounted to 38 and the DC50 came out at 6.94 nM.

With `CO[C@H]1CC[C@](C)(Nc2ccc3cc(CN4CC[C@H](Oc5ccc6c(c5)CN(C5CCC(=O)NC5=O)C6=O)C4)ccc3n2)CC1` (stereo partly drawn) [3-(1-oxo-5-{[(3S)-1-[(2-{[(1r,4r)-4-methoxy-1-methylcyclohexyl]amino}quinolin-6-yl)methyl]pyrrolidin-3-yl]oxy}-2,3-dihydro-1H-isoindol-2-yl)piperidine-2,6-dione], in the assay with MKN45 cells, the pEC50 is 8.38 and the “MKN45 Cell Prolif. 120 hr (Ymin-Obs)” value turned out to be 8.155. Besides, on WEE1, the “293T-LentiX WEE1-ePL Degradation 4 hr (Ymin)” value was found to be 30 and the DC50 worked out at 5.36 nM.

`CO[C@H]1CC[C@H](Nc2ccc3cc(CN4CC[C@H](Oc5ccc6c(c5)CN(C5CCC(=O)NC5=O)C6=O)C4)ccc3n2)CC1` (stereo partly drawn) [3-(1-oxo-5-{[(3S)-1-[(2-{[(1r,4r)-4-methoxycyclohexyl]amino}quinolin-6-yl)methyl]pyrrolidin-3-yl]oxy}-2,3-dihydro-1H-isoindol-2-yl)piperidine-2,6-dione]: in the assay with MKN45 cells, the pEC50 is 8.30 and the “MKN45 Cell Prolif. 120 hr (Ymin-Obs)” value turned out to be 8.26. On WEE1, the “293T-LentiX WEE1-ePL Degradation 4 hr (Ymin)” value was 32.5 and the DC50 came out at 6.28 nM.

Regarding `CO[C@H]1CC[C@H](Oc2ccc3cc(CN4CC[C@H](Oc5ccc6c(c5)CN(C5CCC(=O)NC5=O)C6=O)C4)ccc3n2)CC1` (stereo partly drawn) [3-(1-oxo-5-{[(3S)-1-[(2-{[(1r,4r)-4-methoxycyclohexyl]oxy}quinolin-6-yl)methyl]pyrrolidin-3-yl]oxy}-2,3-dihydro-1H-isoindol-2-yl)piperidine-2,6-dione], in the assay with MKN45 cells, the pEC50 was 8.04 and the “MKN45 Cell Prolif. 120 hr (Ymin-Obs)” value came out at 8.57. Moreover, on WEE1, the “293T-LentiX WEE1-ePL Degradation 4 hr (Ymin)” value came to 30.67 and the DC50 was 11.5 nM.

With `CO[C@H]1CC[C@@](C)(Nc2ccc3cc(CN4CC[C@H](Oc5ccc6c(c5)CN(C5CCC(=O)NC5=O)C6=O)C4)ccc3n2)CC1` (stereo partly drawn) [3-(1-oxo-5-{[(3S)-1-[(2-{[(1s,4s)-4-methoxy-1-methylcyclohexyl]amino}quinolin-6-yl)methyl]pyrrolidin-3-yl]oxy}-2,3-dihydro-1H-isoindol-2-yl)piperidine-2,6-dione], in the assay with MKN45 cells, the pEC50 was 9.05 and the “MKN45 Cell Prolif. 120 hr (Ymin-Obs)” value is given as 8.44. On WEE1, the “293T-LentiX WEE1-ePL Degradation 4 hr (Ymin)” value was 26 and the DC50 came to 3.41 nM.

Consider `CO[C@H]1CC[C@@H](Nc2ccc3cc(CN4CC[C@H](Oc5ccc6c(c5)CN(C5CCC(=O)NC5=O)C6=O)C4)ccc3n2)CC1` (stereo partly drawn) [3-(1-oxo-5-{[(3S)-1-[(2-{[(1s,4s)-4-methoxycyclohexyl]amino}quinolin-6-yl)methyl]pyrrolidin-3-yl]oxy}-2,3-dihydro-1H-isoindol-2-yl)piperidine-2,6-dione], for which, in the assay on MKN45 cells, the pEC50 was 8.98 and the “MKN45 Cell Prolif. 120 hr (Ymin-Obs)” value came out at 6.285. Further, at WEE1, the “293T-LentiX WEE1-ePL Degradation 4 hr (Ymin)” value came out at 29.5 and the DC50 was 6.38 nM.

Regarding `CO[C@H]1CC[C@@H](Oc2ccc3cc(CN4CC[C@H](Oc5ccc6c(c5)CN(C5CCC(=O)NC5=O)C6=O)C4)ccc3n2)CC1` (stereo partly drawn) [3-(1-oxo-5-{[(3S)-1-[(2-{[(1s,4s)-4-methoxycyclohexyl]oxy}quinolin-6-yl)methyl]pyrrolidin-3-yl]oxy}-2,3-dihydro-1H-isoindol-2-yl)piperidine-2,6-dione], in the assay with MKN45 cells, the pEC50 was 8.27 and the “MKN45 Cell Prolif. 120 hr (Ymin-Obs)” value is on record as 8.79. On WEE1, the “293T-LentiX WEE1-ePL Degradation 4 hr (Ymin)” value is on record as 31.33 and the DC50 amounted to 4.62 nM.

Regarding `O=C1CCC(N2Cc3cc(O[C@H]4CCN(Cc5ccc6nc(CO[C@@H]7CCOC7)ccc6c5)C4)ccc3C2=O)C(=O)N1` (stereo partly drawn) [3-(1-oxo-5-{[(3S)-1-[(2-{[(3R)-oxolan-3-yloxy]methyl}quinolin-6-yl)methyl]pyrrolidin-3-yl]oxy}-2,3-dihydro-1H-isoindol-2-yl)piperidine-2,6-dione], in the assay with MKN45 cells, the pEC50 was 8.58 and the “MKN45 Cell Prolif. 120 hr (Ymin-Obs)” value came to 6.56. In addition, at WEE1, the “293T-LentiX WEE1-ePL Degradation 4 hr (Ymin)” value is 30 and the DC50 is 4.51 nM.
